Assay [1] relates to R 604 culture (Lactococcus lactis). Briefly: Yield of Lactococcus lactis fermentation at standard anaerobic high-OD conditions. It counts as cell-based. Here is the method: To illustrate the effect of adding extra purine containing compounds to an already enriched and optimized media two different types of industrial scale fermentation were compared, one with and one without 0.3% w/w inosine added.
The present experiment was performed using the commercially available R 604 culture, which is available from Chr. Hansen A/S, Hoersholm, Denmark (catalogue no. 200113).
The cultures were cultured in a medium having the following composition: Casein hydrolysate (Oxoid, Basingstoke, UK, Product Code L41), 30 g/l; Primatone RL (Quest, Naarden, The Netherlands, Product Code 5X59051), 30 g/l; soya peptone (Oxoid, Basingstoke, UK, Product Code L44), 30 g/l; yeast extract (Oxoid, Basingstoke, UK, Product Code L21), 15 g/l; MgSO4, 1.5 g/l; Na-ascorbate, 3 g/l; and lactose 50 g/l.
The medium was sterilized by UHT-treatment (143° C. for 8 sec.).
The fermentation was performed in a 550 L industrial fermentation tank without aeration at 30° C. using 1% (w/w) of the culture mentioned above as inoculum. At high OD conditions the fermentation is essentially anaerobic. The cultures were allowed to acidify to pH 6.0. The pH was subsequently maintained at 6.0 by controlled addition of 13.4 N NH4OH.
When no further base consumption was detected, the respective culture was cooled down to about 10° C.
Following cooling, the bacteria in culture media were concentrated 6-18 times by centrifugation and subsequently frozen as pellets in liquid nitrogen at one atmosphere of pressure to produce a so-called frozen Direct Vat Set culture (F-DVS). The F-DVS pellets were stored at −50° C. until further analysis
The yields of the fermentations were specified in two different ways: • 1) by the obtained biomass measured as the Optical Density at 600 nm (OD600), or • 2) by kg of F-DVS culture pr. 100 L fermentation medium wherein the F-DVS culture have an “acidification activity” of 4.8-5.1 according to the Pearce test described in Example 2: Analytical Procedure QAm-043.

In assay [2] the test system is L. lactis subsp. lactis CHCC2862. Briefly: Proteomics (2D protein gels) for detection of exogenous purines in the medium. The settings on record: 0.2% inosine, SA medium with 1% glucose. The class given is cell-based, Lactococcus lactis subsp. lactis. Here is the method:
To set up a specific method for detection of the presence/absence of exogenous purines in the medium we inoculated L. lactis subsp. lactis CHCC2862 into defined SA medium with 1% glucose. This medium is devoid of nucleo compounds (Jensen & Hammer 1993). Cultures were set up at 30° C. with and without 0.2% inosine and incubated overnight. Exponentially growing cells were then inoculated into fresh medium at an OD600 of around 0.1. At OD 0.8 (exponential growth) and in stationary phase cells were harvested and 2D protein gels were produced.
In general around 3-400 protein spots were detectable on the gels with the pH range 4-7. For OD 0.8 there were less than 10 spots that were present from the culture without inosine, but absent (or very weak) from the culture with inosine. […] Four of the strongest spots present only on the gel produced from the culture without purines were subjected to in-gel digestion and mass spectrometry identification. The proteins were identified as: purH (bifunctional purine biosynthesis protein), purM (phosphoribosylaminoimidazole synthase), yphF (phosphoribosylformylglycinamidine synthase PurS), and fhs (formyltetrahydrofolate synthetase). […]
Identification of proteins. The identity of proteins in chosen spots was determined by in-gel digestion and analysis of peptide profile and amino acid content using mass spectrometry. […]

Assay [3] deals with Streptococcus thermophilus culture CHQ-18. Briefly: Yield of Streptococcus thermophilus fermentation at standard anaerobic high-OD conditions. The class given is cell-based. The settings on record: 0.2% w/w added, 3 L tank, 40° C., pH 6.0.
Procedure: 0.2% w/w inosine is approximately 7 mM inosine.
This experiment was performed to investigate the effect of adding extra purine containing compounds to an already enriched and optimized media to be used for anaerobic fermentation at high OD-conditions.
The present experiment was performed using the commercially available Streptococcus thermophilus culture CHQ-18, which is available from Chr. Hansen A/S, Hoersholm, Denmark.
The cultures were cultured in a rich medium based on complex medium components, BioSpringer yeast extract 207, Arla skim milk powder (Milex 240), and lactose.
The fermentation was performed in a 3 L agitated fermentation tank at 40° C. using 0.1% (w/w) of the culture mentioned above as inoculum. The pH was maintained at 6.0 by addition of 13.4 N NH4OH. Anaerobic conditions were ensured by flushing with nitrogen in head space (1.5 l/min). Agitation was 300 rpm.
The yields of the fermentations were specified by the obtained biomass measured as the Optical Density at 600 nm (OD600) of unconcentrated samples sampled during the fermentation.
Setting [4] is: 0.3% w/w inosine, 550 L tank without aeration, 30° C., pH 6.0.

On to `OC[C@H]1O[C@@H](n2cnc3c(O)ncnc32)[C@H](O)[C@@H]1O` [inosine], for which the “Effect of enhancing agent on yield” value in assay [1] (0.3% w/w inosine added to the anaerobic culture medium before the start of the fermentation) was “did not result in increased yields”. Moreover, in assay [1] (setting [4]), the “Yield according to Pearce” value came out at 4.98 and the “Yield as OD600” value is 25.2. Further, the “Protein spots present from the culture without inosine, but absent (or very weak) from the culture with inosine” value in assay [2] (30° C., OD 0.8 (exponential growth), gels pH 4-7) is recorded as “less than 10 spots”. The “Absence/presence pattern of purine de novo synthesis protein spots” value in assay [2] (cells in stationary phase) is reported as “a similar absence/presence pattern was obtained”. Also, the “Effect of enhancing agent on yield (biomass as OD600, FIG. 1)” value in assay [3] is on record as “did not result in increased yields”.

The values above are taken from patent publication US9854822B2, “Process for increasing the yield of Lactococcus lactis subsp, lactis and/or Lactococcus lactis subsp. cremoris bacteria cultures during aerobic fermentation” (CHR. HANSEN A/S, priority 2005, dated 2018).
